Data on two molecules can be found in patent publication US20230113802A1, “COMPOSITION AND METHOD TO PREPARE LONG-ACTING INJECTABLE SUSPENSION CONTAINING MULTIPLE CANCER DRUGS” (University of Washington, priority 2020, published 2023).

The nature of data set [1]: Association efficiency of venetoclax and zanubrutinib with DcNP's by dialysis. It is filed as physicochemical. The method, then: 85.4 mg DSPC, 33.6 mg DSPE-mPEG2000, 9.6 mg ABT-199, and 9.6 mg BGB-3111 were dissolved in 4 mL pre-warmed 70° C. tert-butyl alcohol. The solution was thoroughly mixed, lyophilized over 24 hrs, and reconstituted in 0.9% NaCl, 20 mM NaHCO3 buffer with trace TWEEN® 20. The resulting drug-combination, stabilized by lipid excipients and referred to as drug combination nanoparticle or DcNP's, were then filtered through an Acrodisc® CR syringe filter (0.2 μm PTFE Membrane, HPLC certified) and diluted with buffer solution to the desired concentration. Particle size was quantified using a NICOMP 380 ZLS (Zeta Potential/Particle Sizer). The extent of ABT-199 and BGB-3111 association with the DcNP particles in solution was analyzed via dialysis (6,000-8,000 molecular weight cutoff) under sink conditions; sink condition was achieved by dialyzing 200 μl of DcNP suspension against 200 mL buffer solution (1,000-fold volume change) for 4 hrs. The drug association efficiency (AE %) was determined by comparing the pre- and post-dialysis drug concentration ratios of each drug. Drug concentration was determined by the extraction drug in suspension and analyzed based on a LC-MS/MS assay as described below.
Following initial rehydration and without any sonication, particle size of the DcNP's with and without TWEEN20 was measured using the Zetasizer (FIG. 10). […] Without Tween20, DcNP size was primarily 39 nm in diameter (92%) with less than 8% of particles measuring 870 nm in diameter (FIG. 10). Particle size was determined via dynamic light scattering, and association efficiency (FIG. 11) is a normalized mass/mass ratio calculated by comparing amount of drug remaining associated with DcNP's compared to the overall amount of drug used to create the particles.

For the next data set, the system named is HL-60 cells. Put plainly: AlamarBlue cell growth inhibition, HL-60. The format is cell-based. The note with it: Homo sapiens; for IC50: 120 h, HL-60, five days; for EC50: HL-60, 120 h, HL60 (Bcl-2 +, BTK +), 5 days, read-out: Inhibitory effects (EC50). The method, then:
(§1) K-562 cells (human leukemia) were purchased from ATCC (Manassas, USA). Additional human leukemic cell lines, MOLT-4 and HL-60, were a generous gift from Carrie Cummings at Fred Hutchinson Cancer Research Center (Seattle, USA). All cells were cultured in Gibco RPMI medium 1640 with Gibco 1% 100×Antibiotic-Antimycotic (Thermo Fisher Scientific, Waltham, USA) and 10% fetal bovine serum. Cells were selected for their different protein expression levels of Bruton's Tyrosine Kinase (BTK) and B Cell Lymphoma 2 (Bcl-2); HL-60 cells express both BTK and Bcl-2, while K-562 and MOLT-4 cells only express BTK and Bcl-2, respectively.
(§2) Each cell line was seeded separately into Costar® Black 96-well Assay Plates (Corning USA). Within 1 hr, varying concentrations of individual free drug (ABT-199 or BGB-3111), a combination of both free drugs (w/w 1:1), or a combination of drugs within DcNP's were added to the cells. Following a 5-day incubation, growth of treated cells was compared to untreated cells, quantified using an AlamarBlue Cell Viability Assay (Thermo Fisher Scientific, Waltham, USA) with a PerkinElmer 1420 Multilabel Counter plate reader. Prism graphing software (GraphPad) was used to analyze the absorbance data and to assess relative cell growth.
(§3) The effects of DcNP formulation on the effectiveness of ABT-199 and BGB-3111 to inhibit cells that express Bcl-2 and BTK targets is shown in Table 6. Three immortalized human cell lines were selected based on their expression of Bcl-2 (B-cell lymphoma 2; target of venetoclax) and BTK (Bruton's tyrosine kinase; target of zanubrutinib). Cell lines were seeded in 96-well plates at 75,000 cells per well. In separate sets of wells, venetoclax and zanubrutinib were incubated with the cells for 5 days individually as free drug, together as free drug, and together as the drug combination nanoformulation. An AlamarBlue assay was performed to determine relative inhibition of cell growth due to drug presence.
Background: The colour change of resazurin is a common sign of viable cells or microbes.

The test system of a further data set is K-562 cells. Description: AlamarBlue cell growth inhibition, K-562. It is filed as cell-based. The note with it: Homo sapiens; for EC50: 120 h, K562 (Bcl-2 −, BTK +), 5 days, read-out: Inhibitory effects (EC50); for IC50: K562, 120 h, K-562, five days, read-out: IC50 (sensitivity). The method, then: as §1, §2, §3
The nature of data set [2]: Pharmacokinetics of venetoclax-zanubrutinib DcNP's versus free drug in mice. The format is in vivo, BALB/C mice. As to conditions: for AUC: female, BALB/C, mouse, plasma; for time detectable in plasma: following administration of the nanoparticles. The text has this: To quantify drug concentrations (both DcNP-bound and free drug), an extraction protocol was established to quantify venetoclax and zanubrutinib. In short, drug was solubilized by diluting the sample into ethyl acetate, liberating it from either the DcNP lipid matrix, mouse plasma, or both. Following centrifugation to remove organic material, the samples were dried with nitrogen gas, reconstituted in acetonitrile, and loaded onto an LC-MS/MS. Drug concentrations were quantified by comparing sample data with standard curves prepared from untreated mouse plasma spiked with known amounts of drug.
Separations were carried out on a Synergi column (100×2.0 mm) (Phenomenex, Torrance, USA). A C8 guard column (4.0×2.0 mm) was used (Phenomenex, USA). The separations were done under ambient temperature, and the flow rate was set to 0.55 ml/min. The mobile phase for the separations consisted of buffers A (water with 20 mM ammonium acetate) and B (acetonitrile). The single mobile phase ran for five minutes, and it consisted of 25% buffer A and 75% buffer B.
All animal procedures complied with and were approved by the University of Washington Institutional Animal Care and Use Committee. Female BALB/C mice were used, originally obtained from Charles River Laboratories (Wilmington, Mass.). Mice were kept under pathogen-free conditions, exposed to a 12 h light/dark cycle, and received food ad libitum. Three groups of three mice each were administered ABT-199 and BGB-3111: (1) the first group received a 180 μL intravenous injection of 600 μg ABT-199 and 600 μg BGB-3111 in 0.9% NaCl, 20 mM NaHCO3 buffer with trace DMSO and Cremophor EL as solubilizing agents, (2) the second group received an intravenous injection of ABT-199 and BGB-3111 DcNP's in equivalent volume and drug molar concentration as the first group, and (3) the third group received a subcutaneous injection of ABT-199 and BGB-3111 DcNP's in the inner right leg. Plasma was collected at select time points, then extracted and analyzed by HPLC-MS/MS using the previously established protocol to determine plasma concentrations of drug over time.

The mark [3] stands for this setting: iv, 600 ug, intravenous free drug injection (600 μg each drug).
[4] abbreviates: iv, 600 ug, intravenously administered DcNP's.
[5] abbreviates: sc, subcutaneous injection of DcNP's, plasma over one week.

Where two headings read alike, the source gives them in different places.

A word on the IC50: it is the concentration at which inhibition is half-maximal. The EC50 is the concentration that produces a half-maximal response. Broadly, the AUC is concentration integrated over time. `C=CC(=O)N1CCC([C@@H]2CCNc3c(C(N)=O)c(-c4ccc(Oc5ccccc5)cc4)nn32)CC1` [Zanubrutinib, (7S)-2-(4-phenoxyphenyl)-7-(1-prop-2-enoylpiperidin-4-yl)-4,5,6,7-tetrahydropyrazolo[1,5-a]pyrimidine-3-carboxamide]: the “AE % (association efficiency with the DcNP lipid platform)” value in data set [1] (with TWEEN20, day 1) is 98.52%; in data set [1] (with TWEEN20, day 70), 93.05%; in data set [1] (without TWEEN20, day 1) it was 99.99%; in data set [1] (without TWEEN20, day 70) it was 95.50%. Moreover, the IC50 in the data set with HL-60 cells (read-out: IC50 (sensitivity)) is 10.3 µg/mL; in the data set with K-562 cells, 8.3 µg/mL. The EC50 with HL-60 cells was 10 µg/mL; with K-562 cells, 8.4 µg/mL. Further, the “AUC of subcutaneous DcNP's compared to intravenously delivered free drug (ratio)” value in data set [2] is given as over 5.92. For the same molecule, the results for the exposure (AUC) in data set [2] (setting [3]), in data set [2] (setting [4]) and in data set [2] (setting [5]) were 8300 ng·h/mL, 11300 ng·h/mL and 49000 ng·h/mL, respectively. Also, the “time detectable in plasma” value in data set [2] is “less than one day”.

Regarding `CC1(C)CCC(CN2CCN(c3ccc(C(=O)NS(=O)(=O)c4ccc(NCC5CCOCC5)c([N+](=O)[O-])c4)c(Oc4cnc5[nH]ccc5c4)c3)CC2)=C(c2ccc(Cl)cc2)C1` [Venetoclax, 4-[4-[[2-(4-chlorophenyl)-4,4-dimethylcyclohexen-1-yl]methyl]piperazin-1-yl]-N-[3-nitro-4-(oxan-4-ylmethylamino)phenyl]sulfonyl-2-(1H-pyrrolo[2,3-b]pyridin-5-yloxy)benzamide], the “AE % (association efficiency with the DcNP lipid platform)” value in data set [1] (with TWEEN20, day 1) came out at 100%; in data set [1] (with TWEEN20, day 70), 99.91%; in data set [1] (without TWEEN20, day 1) it was 100%; in data set [1] (without TWEEN20, day 70), 100%. For the same molecule, the IC50 in the data set with HL-60 cells (read-out: IC50) amounted to 0.00192 µg/mL; in the data set with K-562 cells it was 15.9 µg/mL. Further, the EC50 in the data set on HL-60 cells came out at 0.0019 µg/mL; in the data set with K-562 cells it was 16 µg/mL. The “AUC of subcutaneous DcNP's compared to intravenously delivered free drug (ratio)” value in data set [2] is on record as “over 2.62”. For the same molecule, the AUC in data set [2] (setting [3]) turned out to be 88800 ng·h/mL; in data set [2] (setting [4]) it was 216000 ng·h/mL; in data set [2] (setting [5]) it was 232000 ng·h/mL. For the same molecule, the “time detectable in plasma” value in data set [2] is recorded as “up to seven days”.
